Source: ChEMBL document CHEMBL4627385, “Cytotoxic Monoterpenoid Indole Alkaloids from Tabernaemontana corymbosa as Potent Autophagy Inhibitors by the Attenuation of Lysosomal Acidification” (J Nat Prod, 2020)
pEC50, pIC50: −log10 of the molar value. Calls of active or inactive are those of the source. No cut-off for these calls is given here.

Tests used:
Assay type in all cases: functional, cell-based
HeLa [1] = assay: Inhibition of lysosomal acidification in human HeLa cells incubated for 3 hrs by LysoTracker Red DND-99 staining based array scan method
SMMC-7721 = assay: Cytotoxicity against human SMMC7721 cells assessed as reduction in cell viability incubated for 48hrs by MTT assay; conditions: SMMC-7721, 48 h
SW480 = assay: Cytotoxicity against human SW480 cells assessed as reduction in cell viability incubated for 48hrs by MTT assay; conditions: SW480, 48 h
MCF7 = assay: Cytotoxicity against human MCF7 cells assessed as reduction in cell viability incubated for 48hrs by MTT assay; conditions: MCF7, 48 h
A549 = assay: Cytotoxicity against human A549 cells assessed as reduction in cell viability incubated for 48hrs by MTT assay; conditions: A549, 48 h
HL-60 = assay: Cytotoxicity against human HL60 cells assessed as reduction in cell viability incubated for 48hrs by MTT assay; conditions: HL-60, 48 h
HeLa [2] = assay: Inhibition of autophagic flux in human HeLa cells assessed as p62 protein expression at 50 nM by Western blot analysis
HeLa [3] = assay: Inhibition of autophagic flux in human HeLa cells assessed as increase in LC3-2 to LC3-1 ratio at 50 nM by Western blot analysis
HeLa [4] = assay: Inhibition of autophagic flux in human HeLa cells assessed as inhibition of lysosomal acidification at 50 nM by Western blot analysis
HeLa [5] = assay: Inhibition of autophagic flux in human HeLa cells assessed as increase in LC3-2 accumulation at 50 nM by Western blot analysis
HeLa [6] = assay: Inhibition of autophagic flux in human HeLa cells harboring GFP-LC3 assessed as increase in LC3 dot accumulation incubated for 12 hrs by confocal microscopic method
HeLa [7] = assay: Inhibition of autophagic flux in human HeLa cells assessed as increase in LC3-2 to LC3-1 ratio at 20 uM in presence of Bafilomycin A1 by Western blot analysis
HeLa [8] = assay: Inhibition of autophagic flux in human HeLa cells assessed as p62 protein expression at 20 uM by Western blot analysis
HeLa [9] = assay: Inhibition of autophagic flux in human HeLa cells assessed as increase in LC3-2 to LC3-1 ratio at 20 uM by Western blot analysis

| Compound | pEC50 (HeLa [1]) | pIC50 (SMMC-7721) | pIC50 (SW480) | pIC50 (MCF7) | pIC50 (A549) | pIC50 (HL-60) | also measured |
| --- | --- | --- | --- | --- | --- | --- | --- |
| COC(=O)[C@@]12C[C@@H]3C[C@H]([C@H](C)O)C1[N@@](CCc1c2[nH]c2ccccc12)C3 | < 4.40 |  |  |  |  |  |  |
| C/C=C1/CN2COC[C@@]3(C(=O)OC)[C@@H]1C[C@@H](c1c(OC)ccc4c5c([nH]c14)[C@]1(C(=O)OC)C[C@@H]4C[C@H](CC)[C@@H]1N(CC5)C4)c1[nH]c4ccccc4c1C[C@H]23 | < 4.40 |  |  |  |  |  |  |
| C/C=C1/CN2COC[C@]3(C(=O)OC)[C@@H]1C[C@@H](c1c(OC)ccc4c5c([nH]c14)[C@]1(C(=O)OC)C[C@H]4C[C@H](CC)[C@@H]1N(CC5)C4=O)c1[nH]c4ccccc4c1C[C@H]23 | < 4.40 | < 5.00 | < 5.00 | < 5.00 | < 5.00 | < 5.00 |  |
| C/C=C1/CN(C)[C@H]2Cc3c([nH]c4ccccc34)[C@H](OC)C[C@H]1[C@]2(CO)C(=O)OC | < 4.40 | < 5.00 | < 5.00 | < 5.00 | < 5.00 | < 5.00 |  |
| C/C=C1/CN(C)[C@H]2Cc3c([nH]c4ccccc34)[C@H](c3c(OC)ccc4c3N=C3[C@]5(C(=O)OC)C[C@@H]6C[C@H](CC)[C@@H]5N(CC[C@]34O)C6)C[C@H]1[C@]2(CO)C(=O)OC | < 4.40 |  |  |  |  |  |  |
| CC[C@H]1C[C@H]2C[C@@]3(C(=O)OC)c4[nH]c5ccccc5c4CC[N@@](C2CC(C)=O)[C@@H]13 (stereo partly drawn) | < 4.40 |  |  |  |  |  |  |
| COC(=O)[C@@]12CC3C[C@H]([C@H](C)O)[C@@H]1N(C3)Cn1c2c(C=O)c2ccccc21 | < 4.40 | < 5.00 | < 5.00 | < 5.00 | < 5.00 | < 5.00 |  |
| COC(=O)C[C@@H]1[C@@H]2C[C@H]([C@H](C)O)[C@@H]3N1CCc1c([nH]c4ccc(OC)cc14)[C@]3(C(=O)OC)C2 | < 4.40 | < 5.00 | < 5.00 | < 5.00 | < 5.00 | < 5.00 |  |
| C/C=C1/CN(C)[C@H]2Cc3c([nH]c4ccccc34)[C@H](c3cc4c(cc3OC)N=C3[C@]5(C(=O)OC)C[C@]6(C(=O)OC)C[C@H](CC)[C@@H]5N(CC[C@@]34O)C6)C[C@H]1[C@]2(CO)C(=O)OC | 4.59 |  |  |  |  |  | inhibition (HeLa [1]): Dose-dependent effect |
| CC[C@H]1C[C@H]2CN3CC[C@@]4(O)C(=Nc5cc(OC)ccc54)[C@](C(=O)OC)(C2)[C@H]13 | < 4.40 | < 5.00 | 5.12 | < 5.00 | < 5.00 | < 5.00 |  |
| COC(=O)C[C@@H]1[C@@H]2C[C@H]([C@H](C)O)[C@@H]3N1CCc1c([nH]c4cc(OC)ccc14)[C@]3(C(=O)OC)C2 | < 4.40 | < 5.00 | < 5.00 | < 5.00 | < 5.00 | < 5.00 |  |
| C/C=C1/CN(C)[C@H]2Cc3c([nH]c4ccccc34)[C@H](c3c(OC)ccc4c5c([nH]c34)[C@]3(C(=O)OC)C[C@H]4C[C@H](CC)[C@@H]3N(C4)C[C@H]5OC)C[C@H]1[C@]2(CO)C(=O)OC | < 4.40 | < 5.00 | < 5.00 | < 5.00 | < 5.00 | < 5.00 |  |
| C/C=C1/CN2COC[C@@]3(C(=O)OC)[C@@H]1C[C@H](c1cc4c5c([nH]c4cc1OC)[C@]1(C(=O)OC)C[C@@H]4C[C@H](CC)[C@@H]1N(CC5)C4)c1[nH]c4ccccc4c1C[C@H]23 | 4.53 | 5.33 | 5.46 | 5.40 | 5.07 | 5.49 | inhibition (HeLa [1]): Dose-dependent effect |
| C/C=C1/CN2COC[C@]3(C(=O)OC)[C@@H]1C[C@@H](c1c(OC)ccc4c1N=C1[C@]5(C(=O)OC)C[C@@H]6C[C@H](CC)[C@@H]5N(CC[C@]14O)C6)c1[nH]c4ccccc4c1C[C@H]23 | < 4.40 |  |  |  |  |  |  |
| CO/C1=C\C(C)=C\[C@@H](C)[C@@H](O)[C@@H](C)C/C(C)=C/C=C/[C@H](OC)[C@@H]([C@@H](C)[C@@H](O)[C@H](C)[C@@]2(O)C[C@@H](O)[C@H](C)[C@@H](C(C)C)O2)OC1=O |  |  |  |  |  |  | inhibition (HeLa [2]): Active; inhibition (HeLa [3]): Active; inhibition (HeLa [4]): Active; inhibition (HeLa [5]): Active |
| CC[C@H]1C[C@@H]2CN3CCc4c([nH]c5cc(OC)c([C@@H]6C[C@H]7C(C(=O)OC)[C@H](Cc8c6[nH]c6ccccc86)N(C)C[C@H]7CC)cc45)[C@](C(=O)OC)(C2)[C@H]13 (stereo partly drawn) | 4.80 |  |  |  |  |  | inhibition (HeLa [1]): Dose-dependent effect |
| COC(=O)[C@@]12C[C@@H]3C[C@@H]([C@H](C)O)C1[N@@](CCc1c2[nH]c2ccccc12)C3 | < 4.40 |  |  |  |  |  |  |
| CC[C@H]1C[C@H]2C[C@@]3(C(=O)OC)c4[nH]c5cc(OC)ccc5c4CC[N@@](C2CC(C)=O)[C@@H]13 (stereo partly drawn) | < 4.40 |  |  |  |  |  |  |
| CC[C@H]1C[C@@H]2CN3CCc4c([nH]c5ccccc45)[C@](C(=O)OC)(C2)[C@H]13 [CORONARIDINE] | < 4.40 |  |  |  |  |  |  |
| CC[C@H]1C[C@H]2C[N@]3CCc4c([nH]c5ccc(OC)cc45)[C@](C(=O)OC)(C2)[C@H]13 | < 4.40 |  |  |  |  |  |  |
| CC[C@H]1C[C@H]2CN3CCc4c([nH]c5cc(OC)c([C@@H]6C[C@H]7[C@@]8(C(=O)OC)CO[C@H](N(C)[C@H]8Cc8c6[nH]c6ccccc86)[C@@]76O[C@H]6C)cc45)[C@](C(=O)OC)(C2)[C@H]13 | 4.69 | > 5.00 | < 5.00 | > 5.00 | > 5.00 | > 5.00 | inhibition (HeLa [6]): Active; inhibition (HeLa [7]): Active; inhibition (HeLa [8]): Active; inhibition (HeLa [9]): Active; inhibition (HeLa [1]): Dose-dependent effect |
| CC[C@H]1C[C@@H]2CN3CCc4c([nH]c5cc(OC)ccc45)[C@](C(=O)OC)(C2)[C@H]13 [ISOVOACANGINE] | < 4.40 |  |  |  |  |  |  |
| COC(=O)[C@@]12C[C@@H]3CC([C@H](C)O)[C@@H]1[N@@](CC[C@]1(O)C2=Nc2ccccc21)C3 (stereo partly drawn) | < 4.40 |  |  |  |  |  |  |
| COC(=O)[C@@]12C[C@@H]3CC([C@H](C)O)[C@@H]1[N@@](CC[C@]1(O)C2=Nc2ccc(OC)cc21)C3 (stereo partly drawn) | < 4.40 |  |  |  |  |  |  |
| CCN(CC)CCCC(C)Nc1ccnc2cc(Cl)ccc12 (stereo not drawn) [CHLOROQUINE] | 4.71 |  |  |  |  |  |  |
| CC[C@H]1C[C@]2(C(=O)OC)CN3CC[C@@]4(O)C(=Nc5cc(OC)c([C@@H]6C[C@H]7[C@@]8(C(=O)OC)CO[C@H](N(C)[C@H]8Cc8c6[nH]c6ccccc86)[C@@]76O[C@H]6C)cc54)[C@](C(=O)OC)(C2)[C@H]13 | 4.89 |  |  |  |  |  | inhibition (HeLa [6]): Active; inhibition (HeLa [7]): Active; inhibition (HeLa [8]): Active; inhibition (HeLa [9]): Active; inhibition (HeLa [1]): Dose-dependent effect |
| C/C=C1/CN(C)[C@H]2Cc3c([nH]c4ccccc34)[C@H](c3c(OC)ccc4c3N[C@]3(OC)[C@]5(C(=O)OC)C[C@H]6C[C@H](CC)[C@@H]5N5CC[C@@]43O[C@H]65)C[C@H]1[C@]2(CO)C(=O)OC | < 4.40 | < 5.00 | < 5.00 | < 5.00 | < 5.00 | < 5.00 |  |
